# Data from patent EP1079849B1, “USE OF HMG PROTEINS FOR THE PREPARATION OF MEDICAMENTS HAVING CYTOTOXIC ACTIVITY” (Istituto Di Ricerche " Giorgio Sisini", priority 1998, dated 2002).
# Tested on: tumors
# Experiment: DMBA-induced tumor growth in rats
# Conditions: female rats with DMBA-induced tumors; control = saline solution; result in words
substance,measurement,value
"Peptide 1-19: peptide 1-19 of HMG-I, commercially available from Santa Cruz Biotechnology, Santa Cruz, CA, USA (MSESSSKSSQPLASKQEKD; UniProt P17096 1-19, looked up, fragment)",tumor growth in comparison to the control,clearly slow down the tumor growth
